Data from US20230092679A1, “MCL-1 INHIBITOR ANTIBODY-DRUG CONJUGATES AND METHODS OF USE” (NOVARTIS AG, priority 2019, published 2023).
Where two headings read alike, the source gives them in different places.

Columns and labels:
[1] = tested on: ociaml5; assay: In vitro ADC activity, AML cell lines, CellTiter-Glo (Example 20); format: cell-based; conditions: ociaml5, 5 days
[2] = tested on: m07e; assay: as above; format: cell-based; conditions: 5 days
[3] = tested on: hel; assay: as above; format: cell-based; conditions: 5 days
[4] = tested on: ociaml2; assay: as above; format: cell-based; conditions: ociaml2, 5 days
[5] = tested on: AMO1; assay: CellTiter-Glo proliferation assay (Example 6); format: cell-based, human; conditions: CD48 Mcl-1 ADCs and payload P1, 5 days
Description: (§1) Mcl-1 ADCs were tested on nine endogenous cancer cell lines and one isogenic cell line engineered to overexpress a target of interest. Six targets were assessed: HER2, BCMA, CD38, CD48, CD79b, and CD33.
(§2) Cell lines • HER2: HCC1954 (ATCC No. CRL-2338 cultured in RPMI-1640+10% FBS) and HCC2218 (ATCC No. CRL-2343 cultured in RPMI-1640+10% FBS). • BCMA: NCI-H929 (ATCC No. CRL-9068 cultured in RPMI-1640+10% FBS+0.05 mM 2-mercaptoethanol). • CD38: A4-Fuk (JCRB No. JCRB0097 cultured in RPMI-1640+10% FBS) and KMS-21 BM (JCRB No. JCRB1185 cultured in RPMI-1640+10% FBS). • CD48: NCI-H929 (ATCC No. CRL-9068 cultured in RPMI-1640+10% FBS+0.05 mM 2-mercaptoethanol), OPM-2 (DSMZ No. ACC-50 cultured in RPMI-1640+10% FBS) and AMO1 (DSMZ No. ACC-538 cultured in RPMI-1640+20% FBS). • CD79b: RS4;11 (ATCC No. CRL-1873 cultured in RPMI-1640+10% FBS). • CD33: MOLM-13 (DSMZ No. ACC-554 cultured in RPMI-1640+10% FBS) and an isogenic cell line, AMO1-CD33 clone D2. AMO1 cell line was transfected to generate a stable AMO1 cell line expressing the exogenous protein of interest, CD33, AMO1-CD33 clone D2 (cultured in RPMI-1640+20% FBS).
(§3) The ability of Mcl-1 ADCs to inhibit cell proliferation and survival was assessed using a Promega CellTiter-Glo® proliferation assay. Cell lines were cultured in media optimal for their growth at 5% CO2, 37° C. in a tissue culture incubator. Prior to seeding for the proliferation assay, the cells were split at least 2 days before the assay to ensure optimal growth density. On the day of seeding, adherent cells were lifted off tissue culture flasks using 0.25% trypsin. Cell viability and cell density were determined using a cell counter (Vi-Cell XR Cell Viability Analyzer, Beckman Coulter). […] Cells were seeded at a density of 1,000 cells per well in 45 μl of standard growth media. Plates were incubated at 5% CO2, 37° C. overnight in a tissue culture incubator. The next day, free Mcl-1 payload (P1), targeting Mcl-1 ADCs, and non-targeting isotype ADCs were prepared at 10× in standard growth media. The prepared drug treatments were then added to the cells resulting in final concentrations of 0.0005-500 nM and a final volume of 50 μl per well. Each drug concentration was tested in quadruplets. Plates were incubated at 5% CO2, 37° C. for 5 days in a tissue culture incubator, after which cell viability was assessed through the addition of 25 μl of CellTiter Glo® (Promega, Cat. No. G7573), a reagent which lyses cells and measures total adenosine triphosphate (ATP) content. Plates were incubated at room temperature for 10 minutes to stabilize luminescent signals prior to reading using a luminescence reader (EnVision Multilabel Plate Reader, PerkinElmer). […]

[6] = tested on: AMO1-CD33 clone D2; assay: CellTiter-Glo proliferation assay (Example 6); format: cell-based, human; conditions: CD33 Mcl-1 ADCs and payload P1, 5 days
Description: as §1, §2, §3

[7] = tested on: thp1; assay: In vitro ADC activity, AML cell lines, CellTiter-Glo (Example 20); format: cell-based; conditions: thp1, 5 days
[8] = tested on: cmk; assay: as above; format: cell-based; conditions: 5 days
[9] = tested on: monomac1; assay: as above; format: cell-based; conditions: monomac1, 5 days
[10] = tested on: aml193; assay: as above; format: cell-based; conditions: aml193, 5 days
[11] = tested on: representative cancer cell lines; assay: CellTiter-Glo proliferation assay (Example 6), summary over the cell lines; format: cell-based; conditions: 120 h, 5 days, read-out: IC50 values (range over cell lines)
Description: Mcl-1 ADCs were tested on nine endogenous cancer cell lines and one isogenic cell line engineered to overexpress a target of interest. Six targets were assessed: HER2, BCMA, CD38, CD48, CD79b, and CD33. […]
The ability of Mcl-1 ADCs to inhibit cell proliferation and survival was assessed using a Promega CellTiter-Glo® proliferation assay. […] Cell viability and cell density were determined using a cell counter (Vi-Cell XR Cell Viability Analyzer, Beckman Coulter). […] Plates were incubated at 5% CO2, 37° C. for 5 days in a tissue culture incubator, after which cell viability was assessed through the addition of 25 μl of CellTiter Glo® (Promega, Cat. No. G7573), a reagent which lyses cells and measures total adenosine triphosphate (ATP) content. Plates were incubated at room temperature for 10 minutes to stabilize luminescent signals prior to reading using a luminescence reader (EnVision Multilabel Plate Reader, PerkinElmer). […]

[12] = tested on: eol1; assay: In vitro ADC activity, AML cell lines, CellTiter-Glo (Example 20); format: cell-based; conditions: eol1, 5 days
[13] = tested on: hl60; assay: as above; format: cell-based; conditions: hl60, 5 days
[14] = tested on: A4-Fuk; assay: CellTiter-Glo proliferation assay (Example 6); format: cell-based; parameters: key: **: tested but curve did not converge; conditions: CD38 Mcl-1 ADCs and payload P1, 5 days
Description: as §1, §2, §3

[15] = tested on: KMS-21 BM; assay: CellTiter-Glo proliferation assay (Example 6); format: cell-based; parameters: key: **: tested but curve did not converge; conditions: CD38 Mcl-1 ADCs and payload P1, 5 days
Description: as §1, §2, §3

COc1ccccc1-c1nccc(COc2ccccc2C[C@@H](Oc2ncnc3sc(-c4ccc(F)cc4)c(-c4ccc(OCCN5CCN(C)CC5)c(Cl)c4C)c23)C(=O)O)n1 [P1, (2R)-2-[5-[3-chloro-2-methyl-4-[2-(4-methylpiperazin-1-yl)ethoxy]phenyl]-6-(4-fluorophenyl)thieno[2,3-d]pyrimidin-4-yl]oxy-3-[2-[[2-(2-methoxyphenyl)pyrimidin-4-yl]methoxy]phenyl]propanoic acid]
GI50 ([1]; Homo sapiens, OCI-AML-5, 120 h): 265 nM | Amax ([1]; unit assumed): 4% | Amax ([2]; in % (unit assumed)): −74 | GI50 ([2]; M-07e, 120 h): 94 nM | Amax ([3]; unit assumed): 4% | GI50 ([3]; Homo sapiens, 120 h): 6090 nM | GI50 ([4]; Homo sapiens, OCI-AML2, 120 h): 127 nM | Amax ([4]; in % (unit assumed)): −50 | Amax AMO1 [5]: 19.97 | IC50 ([5]; Homo sapiens, AMO1, 120 h): 0.038 nM | Amax AMO1-CD33 [6]: 103.00 | IC50 ([6]; Homo sapiens, 120 h): 1.53 nM | GI50 ([7]; Homo sapiens, THP-1, 120 h): 28 nM | Amax ([7]; in % (unit assumed)): −72 | Amax ([8]; unit assumed): 100% | GI50 ([8]; Homo sapiens, 120 h): > 10000 nM | GI50 ([9]; Mono-Mac-1, 120 h): 1 nM | Amax ([9]; in % (unit assumed)): −66 | GI50 ([10]; 120 h): 6 nM | Amax ([10]; in % (unit assumed)): −87 | IC50 ([11]; HER2-positive cancer cell lines): 10 to 60 nM | IC50 ([11]; representative cancer cell lines except HER2-positive): 0.038 to 5.6 nM | GI50 ([12]; Homo sapiens, 120 h): 1 nM | Amax ([12]; in % (unit assumed)): −91 | GI50 ([13]; Homo sapiens, HL-60, 120 h): 87 nM | Amax ([13]; in % (unit assumed)): −71 | Amax A4FUK [14]: ** | IC50 (nM) A4FUK [14]: ** | Amax KMS21 BM [15]: ** | IC50 (nM) KMS21 BM [15]: **
